Tests used:
[1] = target: T1, Gluocorticoid receptor of thymus of rats (Rattus norvegicus, UniProt P06536); assay: Glucocorticoid receptor binding (displacement of tritiated dexamethasone); settings: for affinity for glucocorticoid receptors (in words): conclusion
T1 construct: The thymus were removed and homogenized at 0° C; from tissue; host or cells: rat thymus, 105,000 g supernatant (adrenalectomized male Sprague-Dawley rats)
T1 sequence (P06536 1-795): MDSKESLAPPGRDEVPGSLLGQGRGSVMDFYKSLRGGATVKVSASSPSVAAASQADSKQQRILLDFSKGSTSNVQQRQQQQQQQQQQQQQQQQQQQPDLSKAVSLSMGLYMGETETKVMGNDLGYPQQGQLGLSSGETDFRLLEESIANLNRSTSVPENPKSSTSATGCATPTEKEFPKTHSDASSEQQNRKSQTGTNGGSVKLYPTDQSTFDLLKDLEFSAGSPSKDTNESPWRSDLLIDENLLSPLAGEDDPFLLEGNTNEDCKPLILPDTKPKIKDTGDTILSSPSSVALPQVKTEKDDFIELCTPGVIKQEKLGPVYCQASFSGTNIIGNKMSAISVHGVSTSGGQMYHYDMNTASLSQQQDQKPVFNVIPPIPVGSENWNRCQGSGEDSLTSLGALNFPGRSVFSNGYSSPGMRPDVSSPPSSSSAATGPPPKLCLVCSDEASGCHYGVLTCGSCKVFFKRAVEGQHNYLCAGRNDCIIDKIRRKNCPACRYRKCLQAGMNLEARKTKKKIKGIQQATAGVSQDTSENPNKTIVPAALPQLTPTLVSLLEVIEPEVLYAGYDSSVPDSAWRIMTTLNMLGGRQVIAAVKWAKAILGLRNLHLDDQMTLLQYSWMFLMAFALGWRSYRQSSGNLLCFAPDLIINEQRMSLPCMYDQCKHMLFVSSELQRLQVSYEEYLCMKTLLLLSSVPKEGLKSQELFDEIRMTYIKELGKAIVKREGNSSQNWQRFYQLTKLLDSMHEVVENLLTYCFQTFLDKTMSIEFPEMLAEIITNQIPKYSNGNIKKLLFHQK
Protocol: D. Gluocorticoid receptor of thymus of rats
Male Sprague-Dawley EPOS rats weighing 160 to 200 g were surrenalectomized and the animals were killed 4 to 8 days later. The thymus were removed and homogenized at 0° C. in a buffered TS solution of 10 mM, Tris, 0.25M of Saccharose, 2 mM of dithiothreitol HCl for a pH of 7.4 using a polytetrafluoroethylene-glass Potter at a rate of 1 g of tissue per 10 ml of TS. […] The concentration of tied tritiated dexamethasone (B) was measured for each incubate by the adsorption on carbon-dextran technique.
(§1) The calculation of the relative affinity of […] (ARL) was identical for all of the above receptor tests. One traced the following two curves: the percentage of tied tritiated hormone B/T as a function of the logarithm of the cold hormone concentration and B/T as a function of the logarithm of the concentration of the cold test product. One determined the line of the equation. [formula]
(§2) The intersection of the I50 line and the curves permits one to determine the concentrations of the cold hormone of the reference (CH) and the cold test compound (CX) which inhibit by 50% the tieing of tritiated hormone with the receptor. The relative affinity of tieing (ARL) of the test product was determined by the equation: [formula]

[2] = target: T2, Estrogen receptor of uterus of mice (Mus musculus, UniProt P19785); assay: Estrogen receptor binding (displacement of tritiated estradiol)
T2 construct: the uterus were removed and homogenized at 0° C; from tissue; host or cells: mouse uterus, 105,000 g supernatant (immature females 18 to 21 days old)
T2 sequence (P19785 1-599): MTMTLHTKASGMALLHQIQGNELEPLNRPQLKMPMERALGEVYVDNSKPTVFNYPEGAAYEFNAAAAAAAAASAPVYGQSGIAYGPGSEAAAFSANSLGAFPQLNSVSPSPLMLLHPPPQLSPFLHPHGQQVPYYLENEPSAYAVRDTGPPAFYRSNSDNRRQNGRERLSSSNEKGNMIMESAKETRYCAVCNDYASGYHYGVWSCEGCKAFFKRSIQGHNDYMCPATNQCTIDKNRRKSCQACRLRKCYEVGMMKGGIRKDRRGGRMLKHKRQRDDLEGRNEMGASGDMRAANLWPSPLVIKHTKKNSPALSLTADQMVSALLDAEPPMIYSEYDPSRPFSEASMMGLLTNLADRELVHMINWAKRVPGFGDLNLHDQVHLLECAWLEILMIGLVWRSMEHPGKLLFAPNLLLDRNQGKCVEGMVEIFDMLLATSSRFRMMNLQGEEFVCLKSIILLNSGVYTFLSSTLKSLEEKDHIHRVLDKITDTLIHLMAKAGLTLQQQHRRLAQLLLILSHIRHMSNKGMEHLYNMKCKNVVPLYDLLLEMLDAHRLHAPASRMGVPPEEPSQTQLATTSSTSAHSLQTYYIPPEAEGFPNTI
Protocol: E. Estrogen receptor of uterus of mice
Immature female mice 18 to 21 days old were killed and the uterus were removed and homogenized at 0° C. with a polytetrafluoroethylene-glass Potter in a buffered TS solution consisting of 10 mM, Tris, 0125M Saccharose, HCl for a pH of 7.4 at a rate of 1 g of tissue per 25 ml of TS. The homogenate was then ultracentrigued at 105,000 g for 90 minutes at 0° C. and aliquoits of the resulting […] were incubated at 0° C. for a time (t) with a constant concentration (T) of tritiated estradiol in the presence of increasing concentrations (0 to 1000×10^-9 M) of either cold estradiol or cold test compound. The concentration of tied tritiated estradiol (B) was measured for each incubate by the technique of adsorption on carbon-dextran.
as §1, §2

[3] = test system: thymocytes of surrenalectomized rats; assay: Antiglucocorticoidal activity, incorporation of tritiated uridine in thymocytes; format: cell-based; settings: for inhibition at 0.1 µM: 5 × 10^-8 M dexamethasone + test product 10^-7 M; for inhibition at 0.01 µM: 5 × 10^-8 M dexamethasone + test product 10^-8 M; for opposition to the effect of dexamethasone on tritiated uridine incorporation (in words): with 5×10^-8 M dexamethasone
Protocol: III. Antiglucocorticoidal Activity
The test used was that of Dausse et al [Molecular Pharmacology, Vol. 13 (1977), p. 948-955] entitled "The relationship between glucocorticoid structure and effects upon thymocytes" for […] thymocytes. The thymocytes of surrenalectomized rats were incubated at 37° C. for 3 hours in a nutritive medium containing 5×10^-8 M of dexamethasone in the presence or absence of the test compound at different concentrations. Tritiated uridine was added and incubation was continued for one hour. The incubates were cooled and treated with a 5% trifluoroacetic acid solution and the mixture was filtered with Whatman GF/A paper. The filter was washed 3 times with a 5% trifluoroacetic acid solution and retained radioactivity on the filter was determined.

[4] = 5 × 10^-8 M dexamethasone + test product 10^-6 M
[5] = Rattus norvegicus, Thymocyte, read-out: % inhibition of effect of Dexamethasone
[6] = second table, incubation 4 H at 0° C.
[7] = second table, incubation 24 H at 0° C.
[8] = second table, incubation 2 H at 0° C.

| Compound | relative affinity of tieing (ARL), Glucocorticoid ([1]; incubation 4 H at 0° C.) | relative affinity of tieing (ARL), Glucocorticoid ([1]; incubation 24 H at 0° C.) | relative affinity of tieing (ARL), Estrogen ([2]; incubation 2 H at 0° C.) | relative affinity of tieing (ARL), Estrogen ([2]; incubation 5 H (25° C.)) | inhibition at 0.1 µM [3, 5] [%] | inhibition at 0.01 µM [3, 5] [%] | affinity for glucocorticoid receptors (in words) [1] | relative affinity of tieing (ARL), Glucocorticoid [1, 6] | relative affinity of tieing (ARL), Glucocorticoid [1, 7] | relative affinity of tieing (ARL), Estrogen [2, 8] | further results |
| --- | --- | --- | --- | --- | --- | --- | --- | --- | --- | --- | --- |
| CC#C[C@]1(OC(C)=O)CC[C@H]2[C@@H]3CCc4cc(O)ccc4[C@H]3[C@@H](c3ccc(N(C)C)cc3)C[C@@]21C [2 (17 OAc), 11β-(4-dimethylaminophenyl)-17α-(prop-1-ynyl)-17β-acetoxy-Δ^1,3,5(10) -estratriene-3-ol] | 58 | 100 | < 0,1 | 0,1 | 76 | 24 | – | – | – | – | % inhibition of effect of Dexamethasone (symbol) [3, 4]: * (A dose of 10^-6 M inhibited the effect of dexamethasone totally) |
| CC#C[C@]1(O)CC[C@H]2[C@@H]3CCC4=CC(=O)[C@H](C)CC4=C3[C@@H](c3ccc(N(C)C)cc3)C[C@@]21C [5 (2α), 2α-methyl-11β-(4-dimethylaminophenyl)-17α-(prop-1-ynyl)-Δ^4,9-estradiene-17β-ol-3-one] | 214 | 255 | < 0,1 | < 0,1 | 57 | 19 | – | – | – | – | inhibition at 1 µM ([3]; Rattus norvegicus, Thymocyte, 5 × 10^-8 M dexamethasone + test product 10^-6 M, read-out: % inhibition of effect of Dexamethasone): 100% |
| CC#C[C@]1(O)CC[C@H]2[C@@H]3CCC4=CC(=O)[C@@H](C)CC4=C3[C@@H](c3ccc(N(C)C)cc3)C[C@@]21C [5 (2β), 2-methyl-11β-(4-dimethylaminophenyl)-17α-(prop-1-ynyl)-Δ^4,9-estradiene-17β-ol-3-one] | 224 | 299 | < 0,1 | < 0,1 | 57 | 10 | – | – | – | – | % inhibition of effect of Dexamethasone (symbol) [3, 4]: * (A dose of 10^-6 M inhibited the effect of dexamethasone totally) |
| CC#C[C@]1(O)CC[C@H]2[C@@H]3CCC4=CC(=O)[C@H](C)CC4=C3[C@@H](c3ccc(N(C)C)cc3)C[C@@]21C [Example 5, 2α-methyl-11β-(4-dimethylaminophenyl)-17α-(prop-1-ynyl)-Δ^4,9-estradiene-17β-ol-3-one] | – | – | – | – | – | – | very remarkable affinity | – | – | – | opposition to the effect of dexamethasone on tritiated uridine incorporation (in words) [3]: opposed this effect |
| CC#C[C@]1(O)CC[C@H]2[C@@H]3CCC4=CC(=O)CCC4=C3[C@@H](c3ccc(N(C)C)cc3)C[C@@]21C [Example 19, 11β-[4-(N,N-dimethylamino)-phenyl]-17α-(prop-1-ynyl)-Δ^4,9-estradiene-17β-ol-3-one] | – | – | – | – | – | – | very remarkable affinity | – | – | – | opposition to the effect of dexamethasone on tritiated uridine incorporation (in words) [3]: opposed this effect |
| C[C@]12C[C@H](c3ccc([N+](C)(C)[O-])cc3)[C@]34O[C@]35CCC(=O)C=C5CC[C@H]4[C@@H]1CC[C@@]2(O)C#CCl [Example 27, N-oxide of 11β-[4-(N,N-dimethylamino)-phenyl]-9α,10α-epoxy-21-chloro-19-nor-17α-Δ^4-pregnene-20-yne-17β-ol-3-one] | – | – | – | – | – | – | – | 5,3 | 6,2 | 0 | – |
| C#C[C@]1(O)CC[C@H]2[C@@H]3CCC4=CC(=O)CCC4=C3[C@@H](c3ccc(N(C)C)cc3)C[C@@]21C [Example 32, 11β-[4-(N,N-dimethylamino)-phenyl]-17α-ethynyl-Δ^4,9-estradiene-17β-ol-3-one] | – | – | – | – | – | – | very remarkable affinity | 279 | 235 | 0 | – |
| CN(C)c1ccc([C@H]2C[C@@]3(C)[C@@H](CC[C@@]3(O)C#C[Si](C)(C)C)[C@@H]3CCC4=CC(=O)CCC4=C32)cc1 [Example 44, 11β-[4-(N,N-dimethylamino)-phenyl]-21-trimethylsilyl-19-nor-17α-Δ^4,9-pregnadiene-20-yne-17β-ol-3-one] | – | – | – | – | – | – | – | 79 | 104 | 0 | – |

— patent US5043332A, “Novel 11β-substituted -19-nor-steriods” (priority 1981, dated 1991)
